Laboratory results reported in patent publication US20160030406A1, “CORRECTORS ACTING THROUGH MSD1 OF CFTR PROTEIN” (VERTEX PHARMACEUTICALS INCORPORATED, priority 2013, published 2016).

Assays:
ΔF508-CFTR = molecular target: T1, ΔF508-CFTR (Homo sapiens, UniProt P13569, DEL508-508); settings: bronchial epithelial cells from CF subjects; cited from earlier work
T1 construct: endogenous in cells; host or cells: primary human bronchial epithelial cells from CF subjects homozygous for ΔF508

[1] = molecular target: T2, CFTR fragments (CFTR^370, CFTR^373, CFTR^375, CFTR^380, CFTR^430, CFTR^530, CFTR^653) (Homo sapiens, UniProt P13569); experiment: CFTR fragment steady-state accumulation by immunoblot in HEK293 cells; assay type: cell-based; settings: HEK293, 4 hours bortezomib
T2 construct: expressed in transfected cells; host or cells: HEK293, transient transfection
Experimental: Steady-state levels of CFTR and its mutants are determined by western blot analysis. HEK293 cells are transiently transfected with the indicated plasmids (Grove, et al., 2011, Mol Biol Cell, 22: 301-14). The transfected cells are allowed to recover for approximately 18 hrs before addition of DMEM and then supplemented with lumacaftor or DMSO (control). The cells are incubated with the correctors for 24 hrs before isolating the cells for western blot analysis. The harvested cells are diluted with 2×SDS sample buffer (100 mM Tris-HCl (pH 6.8)/4% SDS/0.05% Bromophenol Blue/20% glycerol), sonicated, and heated at 37° C. prior to resolving the proteins on SDS-PAGE gels. The proteins are transferred to nitrocellulose membranes and the membranes are probed with the designated antibodies. β-tubulin is used to indicate loading controls.
To localize the region in CFTR on which lumacaftor acts to correct ΔF508-CFTR misfolding, immunoblot and pulse-chase studies are used to monitor the impact of the drug on the accumulation of a set of CFTR and ΔF508-CFTR fragments that expose surfaces present on CFTR folding intermediates.
A set of CFTR fragments with domain boundaries that permitted them to accumulate in unstable or stable states are expressed in HEK293 cells, and the effect of 5 μM lumacaftor on the accumulation of different fragments is determined. As a point of reference, the impact of the proteasome inhibitor bortezomib on CFTR fragment accumulation is also measured.
Cells are treated for 4 hours with bortezomib or 18 hours at 37° C. with lumacaftor. The amount of CFTR fragment accumulation is determined by immunoblot.
To evaluate whether the 362-380 helix is critical for MSD1 folding, the accumulation and sensitivity to lumacaftor of CFTR^373, CFTR^375, and CFTR^380 is analyzed. CFTR^373 accumulation is similar to that of CFTR^370 and insensitive to lumacaftor. CFTR^375 accumulation is similar to CFTR^370, but its amounts are increased around 6-fold by lumacaftor. […] Maximal accumulation of CFTR^380 occurs at 5 μM lumacaftor.

T1 sequence (P13569 with tags, fused parts or gaps DEL508-508): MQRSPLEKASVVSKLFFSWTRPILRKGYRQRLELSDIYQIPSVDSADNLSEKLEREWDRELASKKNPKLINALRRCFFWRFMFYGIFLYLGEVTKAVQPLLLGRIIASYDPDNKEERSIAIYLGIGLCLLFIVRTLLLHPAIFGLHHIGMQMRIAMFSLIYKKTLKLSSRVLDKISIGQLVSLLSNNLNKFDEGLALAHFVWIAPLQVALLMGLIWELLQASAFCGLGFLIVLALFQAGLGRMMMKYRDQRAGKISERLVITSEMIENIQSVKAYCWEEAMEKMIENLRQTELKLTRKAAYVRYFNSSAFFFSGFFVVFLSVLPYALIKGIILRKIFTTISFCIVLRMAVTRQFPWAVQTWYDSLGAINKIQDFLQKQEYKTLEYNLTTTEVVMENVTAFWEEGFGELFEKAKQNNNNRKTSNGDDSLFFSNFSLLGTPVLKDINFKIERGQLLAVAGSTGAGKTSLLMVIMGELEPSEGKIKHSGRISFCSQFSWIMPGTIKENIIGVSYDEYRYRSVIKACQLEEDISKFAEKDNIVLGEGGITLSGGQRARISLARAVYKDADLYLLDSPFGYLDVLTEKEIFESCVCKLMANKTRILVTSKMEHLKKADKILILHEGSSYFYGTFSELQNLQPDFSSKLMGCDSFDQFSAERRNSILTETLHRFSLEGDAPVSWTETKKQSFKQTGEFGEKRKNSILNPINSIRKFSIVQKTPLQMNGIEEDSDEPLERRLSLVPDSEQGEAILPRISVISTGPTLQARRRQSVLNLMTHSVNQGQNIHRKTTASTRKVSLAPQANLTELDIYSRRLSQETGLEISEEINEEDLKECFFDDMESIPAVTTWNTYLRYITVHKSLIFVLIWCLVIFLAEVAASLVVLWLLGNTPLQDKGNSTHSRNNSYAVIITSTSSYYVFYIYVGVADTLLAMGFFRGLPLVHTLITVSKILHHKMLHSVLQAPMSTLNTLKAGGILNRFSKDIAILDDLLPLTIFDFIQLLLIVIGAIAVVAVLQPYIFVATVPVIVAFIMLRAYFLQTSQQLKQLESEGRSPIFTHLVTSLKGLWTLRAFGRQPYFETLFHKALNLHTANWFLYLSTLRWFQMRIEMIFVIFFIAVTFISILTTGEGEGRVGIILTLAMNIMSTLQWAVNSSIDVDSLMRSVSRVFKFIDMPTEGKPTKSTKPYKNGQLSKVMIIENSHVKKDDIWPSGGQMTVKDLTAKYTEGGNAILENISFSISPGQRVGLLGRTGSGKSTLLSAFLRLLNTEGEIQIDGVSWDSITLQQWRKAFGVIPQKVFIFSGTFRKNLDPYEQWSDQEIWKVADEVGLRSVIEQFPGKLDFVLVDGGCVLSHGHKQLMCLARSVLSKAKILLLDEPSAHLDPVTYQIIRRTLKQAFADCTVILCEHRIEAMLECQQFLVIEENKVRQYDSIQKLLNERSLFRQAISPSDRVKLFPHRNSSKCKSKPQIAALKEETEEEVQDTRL

SMILES	ΔF508-CFTR function (ΔF508-CFTR)	accumulation of CFTR^430, sensitivity to proteasome inhibition [1]	accumulation of CFTR^653, sensitivity to proteasome inhibition [1]	increase in accumulation of CFTR^370 [1] [fold]	increase in accumulation of CFTR^530 [1] [fold]
COc1ccc(Cl)cc1Nc1nc(-c2sc(NC(=O)c3ccccc3)nc2C)cs1 [Corr-4a]	partially restored				
CC(C)C[C@H](NC(=O)[C@H](Cc1ccccc1)NC(=O)c1cnccn1)B(O)O [bortezomib]		relatively insensitive	relatively insensitive	10	10
